Experimental data: patent US11597708B2, “Inhibitors of heat shock factors and uses thereof” (HSF Pharmaceuticals SA, priority 2016, dated 2023)

Tests used:
HeLa cells [1] = assay: Trypan Blue staining, live and necrotic cells; format: cell-based, human
Procedure: (§1) FIG. 6. (A) HeLa cell cultures were mock-exposed (−) or exposed to the indicated concentrations of compound 115 for 24 (left panel) or 96 (right panel) hours. Cell viability of total cultures, floating cells and attached cells was assayed using an Alamar Blue assay. (B) HeLa cell cultures were mock-exposed (−) or exposed to the indicated concentrations of compound 115 for 15-96 hours. Trypan Blue dye exclusion was employed to determine numbers of live cells (left panel) and relative levels of necrotic cells (right panel). (C) HeLa cell cultures were mock-exposed (−) or exposed to the indicated concentrations of compound 115 for 6 and 24 h. Shown are relative levels of early apoptotic cells (annexin-positive, 7 aminoactinomycin D-negative). (D) Flow cytometric analysis of DNA of HeLa cell cultures mock-exposed (−) or exposed to the indicated concentrations of compound 115 for 6, 15 and 24 hours. Relative levels of apoptotic cells are indicated.
(§2) Further studies were aimed at finding out whether IHSF-exposed cancer cells were only growth-arrested or were actually killed and, if they were killed, by what mechanism. […] The viability signal (in whole cultures and, more dramatically, when only attached cells were analyzed) decreased as a function of IHSF concentration. […] Stained (necrotic) and unstained (live) cells were counted (FIG. 6B). […]

HeLa cells [2] = assay: Annexin V/7 aminoactinomycin D double staining assay; format: cell-based, human; conditions: 25 μM for up to 24 hours
Procedure: as §1, §2

[3] = tested on: multiple myeloma MM.1S cells; assay: Analysis of mechanism of cell death in MM.1S cells; format: cell-based, human; conditions: in contrast to HeLa cells (non-apoptotic mechanism)
[4] = Dissolution in aqueous Kleptose HPB stock solution; format: physicochemical; conditions: 85 mg in 8.5 ml of 357 mg/ml Kleptose HPB stock solution, overnight, slow agitation, room temperature
Procedure: 1. Prepare 15 ml of a 357 mg/ml stock solution of Kleptose HPB (Roquette Pharma) in water (of which the amount not used under 2 is reserved for vehicle controls).
2. Dissolve 85 mg of compound 0115 in 8.5 ml of Kleptose stock solution by incubating the solution overnight with slow agitation (at room temperature). Over 90% of the drug substance will be dissolved after this incubation.

Compound: CN(C(=O)/C=C/C1=NCCCO1)c1ncc(-c2cccnc2)s1 [IHSF 115, (E)-3-(5,6-Dihydro-4H-[1,3]oxazin-2-yl)-N-methyl-N-(5-pyridin-3-yl-thiazol-2-yl)-acrylamide]
- necrotic HeLa cells (Trypan Blue) (HeLa cells [1]; 15-hour exposure to 3.125 μM): increase in necrotic cells was already apparent
- numbers of live and necrotic HeLa cells (Trypan Blue) (HeLa cells [1]; exposure for 15, 24 and 96 hours): caused numbers of live cells to decrease and numbers of necrotic cells to increase in a concentration- and time-dependent fashion
- live cells annexin V-stained (HeLa cells [2]): no more than 15%
- mechanism of cell death of MM.1S cells [3]: prominent apoptotic component
- drug substance dissolved [4]: Over 90%
